T1: human ATR (ATP:cob(I)alamin adenosyltransferase; hATR) (Homo sapiens, UniProt Q96EY8, I96T)
T1 sequence (Q96EY8 33-250 I96T): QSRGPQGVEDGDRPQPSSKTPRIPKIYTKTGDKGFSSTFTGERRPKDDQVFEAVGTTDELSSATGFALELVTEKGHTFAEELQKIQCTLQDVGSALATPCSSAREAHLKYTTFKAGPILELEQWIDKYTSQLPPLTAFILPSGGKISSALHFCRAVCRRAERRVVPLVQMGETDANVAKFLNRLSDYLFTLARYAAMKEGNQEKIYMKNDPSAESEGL

T2: human ATR (ATP:cob(I)alamin adenosyltransferase; hATR) (Homo sapiens, UniProt Q96EY8)
T2 sequence (Q96EY8 33-250): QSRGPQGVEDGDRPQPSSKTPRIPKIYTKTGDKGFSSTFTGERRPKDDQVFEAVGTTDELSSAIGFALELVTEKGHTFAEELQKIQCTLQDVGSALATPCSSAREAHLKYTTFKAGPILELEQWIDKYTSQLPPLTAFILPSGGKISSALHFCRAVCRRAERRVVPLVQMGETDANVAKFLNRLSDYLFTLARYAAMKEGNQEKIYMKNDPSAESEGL

B1: ATP:cob(I)alamin adenosyltransferase p.I96T mutant, human, without the mitochondrial targeting sequence (enzyme, UniProt Q96EY8 33-250, looked up)
chain: QSRGPQGVEDGDRPQPSSKTPRIPKIYTKTGDKGFSSTFTGERRPKDDQVFEAVGTTDELSSATGFALELVTEKGHTFAEELQKIQCTLQDVGSALATPCSSAREAHLKYTTFKAGPILELEQWIDKYTSQLPPLTAFILPSGGKISSALHFCRAVCRRAERRVVPLVQMGETDANVAKFLNRLSDYLFTLARYAAMKEGNQEKIYMKNDPSAESEGL

How the values were obtained:
[1] = target: T1, human ATR (ATP:cob(I)alamin adenosyltransferase; hATR); test: intrinsic fluorescence titration; format: binding; conditions: read-out: p.I96T; 50 mM Tris-HCl pH 8.0
[2] = target: T2, human ATR (ATP:cob(I)alamin adenosyltransferase; hATR); test: intrinsic fluorescence titration; format: binding; conditions: read-out: wild-type; 50 mM Tris-HCl pH 8.0
[3] = target: the molecule itself; test: SEC

Molecule	Kd [1] [µM]	Kd [2] [µM]	stoichiometry N [3]
CNCbl	13.3 ± 0.3	7.8 ± 0.5	
B1			3

Source: publication PMC2932867 (Human mutation, 2010)
